Values quoted from earlier work as cited in patent US20020098221A1, “Oil-in-water emulsion formulation of insecticides” (priority 2000, published 2002).

Conditions: at room temperature

| solubility in water [%] | SMILES |
| --- | --- |
| 4 | OCc1ccccc1 [benzyl alcohol] |
| 100 | C[S+](C)[O-] [dimethylsulfoxide] |
| 100 | CN1CCCC1=O [n-methylpyrrolidone] |

| SMILES | solubility in water [%] |
| --- | --- |
| COCC(C)O (centres unmarked) [1-methoxy-2-propanol] | 100 |
| O=C1CCCCC1 [cyclohexanone] | 8 |
